Structures can show the parent of a compound that is named as a salt.
| Structure (SMILES) | melting point |
| --- | --- |
| Cl.Cl.O=C(CC1CCN(Cc2ccc(F)cc2)CC1)c1ccc2c(c1)CCN(Cc1ccccc1)CC2 | 243 to 247 °C (dec.) |
| Cc1ccc(CN2CCC(CCCC(=O)c3ccc4c(c3)CCN(Cc3ccc([N+](=O)[O-])cc3)CC4)CC2)cc1.Cl.Cl | 208 to 211 °C |
| Cc1ccc(CN2CCC(CCCC(=O)c3ccc4c(c3)CCN(Cc3ccc(C#N)cc3)CC4)CC2)cc1.Cl.Cl | 206 to 209 °C (dec.) |
| Cl.O=C(CCC1CCN(C(=O)c2ccccc2)CC1)c1ccc2c(c1)CCN(Cc1ccccc1)CC2 | 118 to 121 °C |
| COc1ccc(CN2CCc3cc(C(=O)CCC4CCN(Cc5ccccc5)CC4)ccc32)cc1.O=C(O)/C=C/C(=O)O | 95 to 98 °C |
| CC(=O)N1CCC(CCC(=O)c2ccc3c(c2)CN(Cc2ccccc2)c2ccccc2CC3)CC1.Cl | 155 to 158 °C |
| CC(=O)N1CCC(CCC(=O)c2ccc3c(c2)CN(Cc2ccc(F)cc2)CCO3)CC1.Cl | 186 to 188 °C |
| COc1ccc(CN2CCc3ccc(C(=O)CCC4CCN(C(=O)c5ccc(-c6ccccc6)cc5)CC4)cc3CC2)cc1.Cl | 212 to 215 °C |
| COc1ccc(CN2CCC(CCC(=O)c3ccc4c(c3)CCN(Cc3ccc(F)cc3)CC4)CC2)cc1 (as salt: hydrochloride) | 235 to 238 °C (dec.) |
| CC(C)(C)c1ccc(CN2CCC(CCC(=O)c3ccc4c(c3)CCN(Cc3ccc(F)cc3)CC4)CC2)cc1 (as salt: hydrochloride) | 230 to 236 °C (dec.) |
| Cc1ccc(CN2CCC(CCC(=O)c3ccc4c(c3)CN(Cc3ccc(F)cc3)CCO4)CC2)cc1 (as salt: hydrochloride) | 240 to 242 °C |
| COc1ccc(CN2CCc3ccc(C(=O)CCC4CCN(Cc5ccc(-c6ccccc6)cc5)CC4)cc3CC2)cc1 (as salt: hydrochloride) | 220 to 225 °C (dec.) |

Other lines, results leading:

| melting point | Structure (SMILES) |
| --- | --- |
| 220 to 222 °C (dec.) | Cl.Cl.O=C(CCCC1CCN(Cc2ccccc2)CC1)c1ccc2c(c1)CCN(Cc1ccccc1)CC2 |
| 226 to 229 °C (dec.) | Cl.Cl.O=C(CCCC1CCN(Cc2ccc(F)cc2)CC1)c1ccc2c(c1)CCN(Cc1ccccc1)CC2 |
| 229 to 233 °C | Cc1ccc(CN2CCC(CC(=O)c3ccc4c(c3)CCN(Cc3ccccc3)CC4)CC2)cc1.Cl.Cl |
| 226 to 229 °C (dec.) | Cc1ccccc1CN1CCC(CCCC(=O)c2ccc3c(c2)CCN(Cc2ccccc2)CC3)CC1.Cl.Cl |
| 222 to 225 °C (dec.) | Cc1cccc(CN2CCC(CCCC(=O)c3ccc4c(c3)CCN(Cc3ccccc3)CC4)CC2)c1.Cl.Cl |
| 207 to 210 °C (dec.) | Cc1ccc(CN2CCC(CCCC(=O)c3ccc4c(c3)CCN(Cc3ccccc3)CC4)CC2)cc1.Cl.Cl |
| 197 to 200 °C | Cc1ccccc1CN1CCc2ccc(C(=O)CCCC3CCN(Cc4ccc(F)cc4)CC3)cc2CC1.Cl.Cl |
| 93 to 94 °C | CC(=O)N1CCc2ccc(C(=O)CCCC3CCN(Cc4ccccc4C)CC3)cc2CC1.Cl |
| 242 to 247 °C (dec.) | O=C(CCCC1CCN(Cc2ccc([N+](=O)[O-])cc2)CC1)c1ccc2c(c1)CCN(Cc1ccccc1)CC2 (as salt: hydrochloride) |
| 239 to 244 °C (dec.) | COC(=O)c1ccc(CN2CCC(CCCC(=O)c3ccc4c(c3)CCN(Cc3ccccc3)CC4)CC2)cc1 (as salt: hydrochloride) |
| 158 to 164 °C | CS(=O)(=O)Nc1cccc(CN2CCC(CCCC(=O)c3ccc4c(c3)CCN(Cc3ccccc3)CC4)CC2)c1 (as salt: hydrochloride) |
| 208 to 210 °C | Cc1ccccc1CN1CCC(CCCC(=O)c2ccc3c(c2)CCN(Cc2ccc(F)cc2F)CC3)CC1 (as salt: hydrochloride) |
| 172 to 178 °C | CC(=O)Nc1ccccc1CN1CCC(CCCC(=O)c2ccc3c(c2)CCN(Cc2ccccc2C)CC3)CC1 (as salt: hydrochloride) |
| 185 to 195 °C (dec.) | Cc1ccccc1CN1CCc2ccc(C(=O)CCCC3CCN(Cc4ccccc4NS(C)(=O)=O)CC3)cc2CC1 (as salt: hydrochloride) |
